Measured values from patent publication US12161722B2, “Bifunctional heterocyclic compound having BTK degradation function via ubiquitin proteasome pathway, and use thereof” (KOREA RESEARCH INSTITUTE OF CHEMICAL TECHNOLOGY, priority 2021, dated 2024).

What follows are molecules tested against T1, WT BTK protein (Homo sapiens, UniProt Q06187) (assay: BTK protein degradation assay (Western blotting), WT BTK). Conditions: concentration range accounting for 50% degradation of WT BTK protein, TMD-8 or RAMOS cells, 24 hours.
T1 construct: measured for intracellular BTK protein levels by Western blotting; endogenous in cells; host or cells: TMD-8 or RAMOS cells
Type: cell-based
How it was run: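 TMD-8 cells (1×10^6 cells/mL) treated 24 h with compound serial dilutions, then lysed in RIPA. Equal protein loads analysed by Western blot for BTK with GAPDH/β-actin as loading controls; activity binned by concentration giving 50% WT BTK degradation.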

T1 sequence (Q06187 whole entry): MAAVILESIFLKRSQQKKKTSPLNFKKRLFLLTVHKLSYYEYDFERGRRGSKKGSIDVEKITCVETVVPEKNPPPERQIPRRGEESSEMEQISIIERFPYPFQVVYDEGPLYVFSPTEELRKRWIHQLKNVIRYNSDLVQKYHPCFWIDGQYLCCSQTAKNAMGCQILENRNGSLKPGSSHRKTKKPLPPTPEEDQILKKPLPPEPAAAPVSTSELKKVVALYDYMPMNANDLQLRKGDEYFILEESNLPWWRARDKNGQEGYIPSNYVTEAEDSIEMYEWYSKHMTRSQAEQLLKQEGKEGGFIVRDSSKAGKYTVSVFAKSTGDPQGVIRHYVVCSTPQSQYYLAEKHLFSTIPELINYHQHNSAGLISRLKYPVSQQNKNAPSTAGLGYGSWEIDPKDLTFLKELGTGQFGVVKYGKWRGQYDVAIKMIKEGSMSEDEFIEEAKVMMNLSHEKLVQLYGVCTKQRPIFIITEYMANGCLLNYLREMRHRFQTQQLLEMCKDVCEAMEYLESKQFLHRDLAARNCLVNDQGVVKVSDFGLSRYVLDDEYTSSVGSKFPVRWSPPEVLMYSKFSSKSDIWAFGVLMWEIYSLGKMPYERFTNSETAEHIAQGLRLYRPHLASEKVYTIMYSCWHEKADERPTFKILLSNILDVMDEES

First: Cc1cccc(C)c1Nc1nn(C)c2nc(Nc3ccc4c(c3)CN(C(=O)[C@@H]3CCCN3C(=O)CN3CCN(c5ccc6c(c5)C(=O)N(C5CCC(=O)NC5=O)C6=O)CC3)CC4)ncc12 (stereo partly drawn) [Compound 33, 5-(4-(2-((S)-2-(7-((3-((2,6-Dimethylphenyl)amino)-1-methyl-1H-pyrazolo[3,4-d]pyrimidin-6-yl)amino)-1,2,3,4-tetrahydroisoquinoline-2-carbonyl)pyrrolidin-1-yl)-2-oxoethyl)piperazin-1-yl)-2-(2,6-dioxopiperidin-3-yl)isoindoline-1,3-dione]
Second: Cc1cccc(C)c1Nc1nn(C)c2nc(Nc3ccc4c(c3)CN(C(=O)C3(F)CCN(C(=O)C5CCN(c6ccc7c(c6)C(=O)N(C6CCC(=O)NC6=O)C7=O)CC5)CC3)CC4)ncc12 (stereo not shown) [Compound 246, 5-(4-(4-(7-((3-((2,6-dimethylphenyl)amino)-1-methyl-1H-pyrazolo[3,4-d]pyrimidin-6-yl)amino)-1,2,3,4-tetrahydroisoquinoline-2-carbonyl)-4-fluoropiperidine-1-carbonyl)piperidin-1-yl)-2-(2,6-dioxopiperidin-3-yl)isoindoline-1,3-dione]
The DC50 of the first is higher: 10 to 1000 nM for the first, 0.1 to 10 nM for the second.

`Cc1cccc(C)c1Nc1nn(C)c2nc(Nc3ccc4c(c3)CN(C(=O)Nc3ccc5c(c3)CN(C3CCC(=O)NC3=O)C5=O)CC4)ncc12` (stereo not shown) [Compound 96, 7-((3-((2,6-dimethylphenyl)amino)-1-methyl-1H-pyrazolo[3,4-d]pyrimidin-6-yl)amino)-N-(2-(2,6-dioxopiperidin-3-yl)-1-oxoisoindolin-5-yl)-3,4-dihydroisoquinoline-2 (1H)-carboxamide] and `Cc1cccc(C)c1Nc1nn(C)c2nc(Nc3ccc4c(c3)CN(CC3CCN(C(=O)Nc5ccc6c(c5)CN(C5CCC(=O)NC5=O)C6=O)CC3)CC4)ncc12` (stereo not shown) [Compound 92, 4-((7-((3-((2,6-Dimethylphenyl)amino)-1-methyl-1H-pyrazolo[3,4-d]pyrimidin-6-yl)amino)-3,4-dihydroisoquinolin-2 (1H)-yl)methyl)-N-(2-(2,6-dioxopiperidin-3-yl)-1-oxoisoindolin-5-yl)piperidine-1-carboxamide] fall in the same range of DC50: 0.1 to 10 nM for the first, 0.1 to 10 nM for the second.

`Cc1cccc(C)c1Nc1nn(C)c2nc(Nc3ccc(N4CCN(CC5CCN(c6ccc7c(c6)C(=O)N(C6CCC(=O)NC6=O)C7=O)CC5)CC4)nn3)ncc12` (stereo not shown) [Compound 268, 5-(4-((4-(6-((3-((2,6-dimethylphenyl)amino)-1-methyl-1H-pyrazolo[3,4-d]pyrimidin-6-yl)amino)pyridazin-3-yl)piperazin-1-yl)methyl)piperidin-1-yl)-2-(2,6-dioxopiperidin-3-yl)isoindoline-1,3-dione] and `Cc1cccc(C)c1Nc1nn(C)c2nc(Nc3ccc(N4CCN(C[C@@H]5CCCN(c6ccc7c(c6)C(=O)N(C6CCC(=O)NC6=O)C7=O)C5)CC4)nc3)ncc12` (stereo partly drawn) [Compound 161, 5-((S)-3-((4-(5-((3-((2,6-Dimethylphenyl)amino)-1-methyl-1H-pyrazolo[3,4-d]pyrimidin-6-yl)amino)pyridin-2-yl)piperazin-1-yl)methyl)piperidin-1-yl)-2-(2,6-dioxopiperidin-3-yl)isoindoline-1,3-dione] fall in the same range of DC50: 0.1 to 10 nM for the first, 0.1 to 10 nM for the second.

`Cc1cccc(C)c1Nc1nn(C)c2nc(Nc3ccc(C4CCN(C(=O)C5CN(c6ccc7c(c6)C(=O)N(C6CCC(=O)NC6=O)C7=O)C5)CC4)cc3)ncc12` (stereo not shown) [Compound 228, 5-(3-(4-(4-((3-((2,6-dimethylphenyl)amino)-1-methyl-1H-pyrazolo[3,4-d]pyrimidin-6-yl)amino)phenyl)piperidine-1-carbonyl)azetidin-1-yl)-2-(2,6-dioxopiperidin-3-yl)isoindoline-1,3-dione] and `Cc1cccc(C)c1Nc1nn(C)c2nc(Nc3ccc(N4CCN(CC5CN(c6ccc7c(c6)C(=O)N(C6CCC(=O)NC6=O)C7=O)C5)C[C@@H]4C)cc3)ncc12` (stereo partly drawn) [Compound 183, 5-(3-(((S)-4-(4-((3-((2,6-Dimethylphenyl)amino)-1-methyl-1H-pyrazolo[3,4-d]pyrimidin-6-yl)amino)phenyl)-3-methylpiperazin-1-yl)methyl)azetidin-1-yl)-2-(2,6-dioxopiperidin-3-yl)isoindoline-1,3-dione] fall in the same range of DC50: 0.1 to 10 nM for the first, 0.1 to 10 nM for the second.

`Cc1cccc(C)c1Nc1nn(C)c2nc(Nc3ccc(C4CCN(CC5CCN(c6cc7c(cc6F)C(=O)N(C6CCC(=O)NC6=O)C7)CC5)CC4)cc3)ncc12` (stereo not shown) [Compound 272, 3-(5-(4-((4-(4-((3-((2,6-dimethylphenyl)amino)-1-methyl-1H-pyrazolo[3,4-d]pyrimidin-6-yl)amino)phenyl)piperidin-1-yl)methyl)piperidin-1-yl)-6-fluoro-1-oxoisoindolin-2-yl)piperidin-2,6-one] and `Cc1cccc(C)c1Nc1nn(C)c2nc(Nc3ccc(C4CCN(C(=O)CC5CCN(c6ccc7c(c6)C(=O)N(C6CCC(=O)NC6=O)C7=O)CC5)CC4)c(F)c3)ncc12` (stereo not shown) [Compound 227, 5-(4-(2-(4-(4-((3-((2,6-dimethylphenyl)amino)-1-methyl-1H-pyrazolo[3,4-d]pyrimidin-6-yl)amino)-2-fluorophenyl)piperidin-1-yl)-2-oxoethyl)piperidin-1-yl)-2-(2,6-dioxopiperidin-3-yl)isoindoline-1,3-dione] fall in the same range of DC50: 0.1 to 10 nM for the first, 0.1 to 10 nM for the second.

`Cc1cccc(C)c1Nc1nn(C)c2nc(Nc3ccc4c(c3)CN(C3CN(C[C@@H]5CCN(c6ccc7c(c6)C(=O)N(C6CCC(=O)NC6=O)C7=O)C5)C3)CC4)ncc12` (stereo partly drawn) [Compound 151, 5-((S)-3-((3-(7-((3-((2,6-Dimethylphenyl)amino)-1-methyl-1H-pyrazolo[3,4-d]pyrimidin-6-yl)amino)-3,4-dihydroisoquinolin-2 (1H)-yl)azetidin-1-yl)methyl)pyrrolidin-1-yl)-2-(2,6-dioxopiperidin-3-yl)isoindoline-1,3-dione] and `Cc1cccc(C)c1Nc1nn(C)c2nc(Nc3ccc4c(c3)CN(C3CN(C[C@H]5CCN(c6ccc7c(c6)C(=O)N(C6CCC(=O)NC6=O)C7=O)C5)C3)CC4)ncc12` (stereo partly drawn) [Compound 150, 5-((R)-3-((3-(7-((3-((2,6-Dimethylphenyl)amino)-1-methyl-1H-pyrazolo[3,4-d]pyrimidin-6-yl)amino)-3,4-dihydroisoquinolin-2 (1H)-yl)azetidin-1-yl)methyl)pyrrolidin-1-yl)-2-(2,6-dioxopiperidin-3-yl)isoindoline-1,3-dione] fall in the same range of DC50: 0.1 to 10 nM for the first, 0.1 to 10 nM for the second.

First: Cc1cccc(C)c1Nc1nn(C)c2nc(Nc3ccc4c(c3)CN(CC3CCN(CC5CN(c6ccc7c(c6)C(=O)N(C6CCC(=O)NC6=O)C7=O)C5)CC3)CC4)ncc12 (stereo not shown) [Compound 50, 5-(3-((4-((7-((3-((2,6-Dimethylphenyl)amino)-1-methyl-1H-pyrazolo[3,4-d]pyrimidin-6-yl)amino)-3,4-dihydroisoquinolin-2 (1H)-yl)methyl)piperidin-1-yl)methyl)azetidin-1-yl)-2-(2,6-dioxopiperidin-3-yl)isoindoline-1,3-dione]
Second: Cc1cccc(C)c1Nc1nn(C)c2nc(Nc3ccc4c(c3)CN(C(=O)C3(F)CCN(c5ccc6c(c5)C(=O)N(C5CCC(=O)NC5=O)C6=O)CC3)CC4)ncc12 (stereo not shown) [Compound 243, 5-(4-(7-((3-((2,6-dimethylphenyl)amino)-1-methyl-1H-pyrazolo[3,4-d]pyrimidin-6-yl)amino)-1,2,3,4-tetrahydroisoquinoline-2-carbonyl)-4-fluoropiperidin-1-yl)-2-(2,6-dioxopiperidin-3-yl)isoindoline-1,3-dione]
The DC50 of the first is higher: 10 to 1000 nM for the first, 0.1 to 10 nM for the second.

`Cc1cccc(C)c1Nc1nn(C)c2nc(Nc3ccc4c(c3)CN(CC3CCN(C(=O)Cc5cccc(NC6=CC(=O)N(C7CCC(=O)NC7=O)C6=O)c5)CC3)CC4)ncc12` (stereo not shown) [Compound 193, 3-(3-((3-(2-(4-((7-((3-((2,6-Dimethylphenyl)amino)-1-methyl-1H-pyrazolo[3,4-d]pyrimidin-6-yl)amino)-3,4-dihydroisoquinolin-2 (1H)-yl)methyl)piperidin-1-yl)-2-oxoethyl)phenyl)amino)-2,5-dioxo-2,5-dihydro-1H-pyrrol-1-yl)piperidin-2,6-one] and `Cc1cccc(C)c1Nc1nn(C)c2nc(Nc3ccc4c(c3)CN(CC3CCN(C(=O)CNc5ccc6nnn(C7CCC(=O)NC7=O)c(=O)c6c5)CC3)CC4)ncc12` (stereo not shown) [Compound 52, 3-(6-((2-(4-((7-((3-((2,6-Dimethylphenyl)amino)-1-methyl-1H-pyrazolo[3,4-d]pyrimidin-6-yl)amino)-3,4-dihydroisoquinolin-2 (1H)-yl)methyl)piperidin-1-yl)-2-oxoethyl)amino)-4-oxobenzo[d][1,2,3]triazin-3 (4H)-yl)piperidin-2,6-one] fall in the same range of DC50: 0.1 to 10 nM for the first, 0.1 to 10 nM for the second.

First: Cc1cccc(C)c1Nc1nn(C)c2nc(Nc3cccc(CNCC4CCN(c5ccc6c(c5)C(=O)N(C5CCC(=O)NC5=O)C6=O)CC4)c3)ncc12 (stereo not shown) [Compound 41, 5-(4-(((3-((3-((2,6-Dimethylphenyl)amino)-1-methyl-TH-pyrazolo[3,4-d]pyrimidin-6-yl)amino)benzyl)amino)methyl)piperidin-1-yl)-2-(2,6-dioxopiperidin-3-yl)isoindoline-1,3-dione]
Second: Cc1cccc(C)c1Nc1nn(C)c2nc(Nc3ccc4c(c3)CN(CC3CCN(C(=O)COc5ccc6nnn(C7CCC(=O)NC7=O)c(=O)c6c5)CC3)CC4)ncc12 (stereo not shown) [Compound 48, 3-(6-(2-(4-((7-((3-((2,6-Dimethylphenyl)amino)-1-methyl-1H-pyrazolo[3,4-d]pyrimidin-6-yl)amino)-3,4-dihydroisoquinolin-2 (1H)-yl)methyl)piperidin-1-yl)-2-oxoethoxy)-4-oxobenzo[d][1,2,3]triazin-3 (4H)-yl)piperidin-2,6-one]
The DC50 of the first is higher: 10 to 1000 nM for the first, 0.1 to 10 nM for the second.

`COc1ccc(C(=O)N2CCC(CC(=O)N3CCc4ccc(Nc5ncc6c(Nc7c(C)cccc7C)nn(C)c6n5)cc4C3)CC2)cc1N1CCC(=O)NC1=O` [Compound 112, 1-(5-(4-(2-(7-((3-((2,6-Dimethylphenyl)amino)-1-methyl-1H-pyrazolo[3,4-d]pyrimidin-6-yl)amino)-3,4-dihydroisoquinolin-2 (1H)-yl)-2-oxoethyl)piperidine-1-carbonyl)-2-methoxyphenyl)dihydropyrimidine-2,4 (1H,3H)-dione] gave a DC50 of 1000 to 10000 nM.
